# ChEMBL document CHEMBL3588755, “hERG Channel Inhibitory Daphnane Diterpenoid Orthoesters and Polycephalones A and B with Unprecedented Skeletons from Gnidia polycephala” (J Nat Prod, 2015)
# Assays:
# hERG (KCNH2) = hERG (KCNH2) (Homo sapiens, UniProt Q12809); assay: Inhibition of human ERG expressed in Xenopus laevis oocytes at 100 uM incubated for 3 mins at holding potential of -100 mV followed by depolarization to +20 mV and repolarization to -50 mV by two-microelectrode voltage clamp assay; type: cell-based; settings: Xenopus laevis oocytes expressing human ERG
# [1] = Retention time of the compound by HPLC method; type: physicochemical
# Chain of hERG (KCNH2) (Q12809 whole entry): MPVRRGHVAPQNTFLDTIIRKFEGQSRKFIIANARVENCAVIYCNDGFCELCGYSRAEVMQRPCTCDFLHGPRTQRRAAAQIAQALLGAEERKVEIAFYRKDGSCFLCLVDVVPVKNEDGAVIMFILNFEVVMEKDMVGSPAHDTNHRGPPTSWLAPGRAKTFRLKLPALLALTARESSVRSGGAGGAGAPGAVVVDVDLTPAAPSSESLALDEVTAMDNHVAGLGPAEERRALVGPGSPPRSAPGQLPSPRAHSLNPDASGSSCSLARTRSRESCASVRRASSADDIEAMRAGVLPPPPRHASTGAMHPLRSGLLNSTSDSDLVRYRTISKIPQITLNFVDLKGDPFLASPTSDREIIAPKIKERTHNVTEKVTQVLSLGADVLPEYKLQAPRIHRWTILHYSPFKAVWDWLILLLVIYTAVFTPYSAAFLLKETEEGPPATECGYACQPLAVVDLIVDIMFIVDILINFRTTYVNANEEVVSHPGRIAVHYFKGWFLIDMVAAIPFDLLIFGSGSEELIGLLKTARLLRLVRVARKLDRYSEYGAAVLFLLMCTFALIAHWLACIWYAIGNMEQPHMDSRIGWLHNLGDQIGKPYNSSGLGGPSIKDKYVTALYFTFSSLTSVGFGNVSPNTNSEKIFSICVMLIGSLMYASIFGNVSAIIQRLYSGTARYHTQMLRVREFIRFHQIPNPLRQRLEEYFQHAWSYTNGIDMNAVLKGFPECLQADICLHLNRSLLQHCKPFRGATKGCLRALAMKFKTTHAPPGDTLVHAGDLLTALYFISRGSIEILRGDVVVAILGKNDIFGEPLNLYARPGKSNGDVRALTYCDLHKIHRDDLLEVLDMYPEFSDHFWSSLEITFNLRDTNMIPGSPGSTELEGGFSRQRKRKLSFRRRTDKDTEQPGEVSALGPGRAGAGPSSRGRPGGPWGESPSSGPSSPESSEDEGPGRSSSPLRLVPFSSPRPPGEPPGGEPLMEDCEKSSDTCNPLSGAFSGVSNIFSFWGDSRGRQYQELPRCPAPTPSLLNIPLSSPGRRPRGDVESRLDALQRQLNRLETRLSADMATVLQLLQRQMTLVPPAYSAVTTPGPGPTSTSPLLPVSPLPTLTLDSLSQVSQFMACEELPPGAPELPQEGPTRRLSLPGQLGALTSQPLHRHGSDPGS
SMILES,"inhibition at 0.05 h, 100 µM (hERG (KCNH2)) [%]",Retention_time [1] [min]
C=C(C)[C@@]12C[C@@H](C)[C@@]34OC(/C=C\C=C/CCCCC)(O[C@@H]1[C@@H]3[C@@H]1O[C@]1(CO)[C@@H](O)[C@]1(O)C(=O)C(C)=C[C@H]14)O2,55.4,18.9
C=C(C)[C@]12OC3(/C=C\C=C/CCCCC)O[C@@H]1[C@@H]1[C@@H]4O[C@]4(CO)[C@@H](O)[C@]4(O)C(=O)C(C)=C[C@H]4[C@@]1(O3)[C@H](C)[C@H]2OC(=O)c1ccccc1,42.5,23.5
C=C(C)[C@]12OC3(/C=C/C=C/CCCCC)O[C@@H]1[C@@H]1[C@@H]4O[C@]4(CO)[C@@H](O)[C@]4(O)C(=O)C(C)=C[C@H]4[C@@]1(O3)[C@H](C)[C@H]2OC(=O)c1ccccc1,51.3,25.5
